Experimental data reported in patent US20190216829A1, “Anticancer Compositions” (ARAGON PHARMACEUTICALS, INC., priority 2016, published 2019).
In brackets after ≈: the same amount, converted by molar mass.

Assay: Solubility of ARN-509 forms in water
Type: physicochemical
Method: Solubility of Form A: 0.01 mg/ml in water.
Solubility of Form B: 0.004 mg/ml in water.

SMILES: CNC(=O)c1ccc(N2C(=S)N(c3cnc(C#N)c(C(F)(F)F)c3)C(=O)C23CCC3)cc1F [Form A, 4-[7-(6-cyano-5-trifluoromethylpyridin-3-yl)-8-oxo-6-thioxo-5,7-diazaspiro[3.4]oct-5-yl]-2-fluoro-N-methylbenzamide]
- Solubility: 10 µg/mL (≈ 20.9 µM)

SMILES: CNC(=O)c1ccc(N2C(=S)N(c3cnc(C#N)c(C(F)(F)F)c3)C(=O)C23CCC3)cc1F [Form B, 4-[7-(6-cyano-5-trifluoromethylpyridin-3-yl)-8-oxo-6-thioxo-5,7-diazaspiro[3.4]oct-5-yl]-2-fluoro-N-methylbenzamide]
- Solubility: 4 µg/mL (≈ 8.38 µM)
